# Reference: patent publication US11371097B2, “Articles for diagnosis of liver fibrosis” (THE GOVERNMENT OF THE UNITED STATES, as represented by THE …, priority 2015, dated 2022)
# Values joined by “and” are separate entries in the source; they are usually repeats but may differ in a detail not shown here. Equal entries are not always repeated. “Also recorded” adds a separate entry of the source. Where two headings read alike, the source gives them in different places.
# Columns and labels:
# [1] = tested on: liver; format: in vivo, Male Sprague-Dawley rats; conditions: for Periportal fibrosis (Masson's trichrome): 162 mg/kg/day; for Periportal fibrosis (Masson's trichrome) / Centrilobular collagenous accumulation (Masson's trichrome): five-day oral administration; for Fibrosis histopathology: low-dose (carbon tetrachloride: all doses); for Centrilobular collagenous accumulation (Masson's trichrome): 200 mg/kg/day;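 on Inflammation: Severity grades from None 0% through Minimal Mild Moderate to Marked over 80% tissue affected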;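 on Vacuolation: Severity grades from None 0% through Minimal Mild Moderate to Marked over 80% tissue affected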
# Protocol: All chemical compounds were diluted in corn oil (CAS No. 8001-30-7) (MP Biomedicals, LLC (Solon, Ohio)). The dose volume was 5 mL/kg. Doses were selected based on doses published in the DrugMatrix database, the National Toxicology Program reports, and ATSDR reports.
# (§1) In vivo rat experiments were performed at Integrated Laboratory Systems (ILS, Research Triangle Park, NC). ILS's Institutional Animal Care and Use Committee approved all experimental procedures. Research was conducted in compliance with the Animal Welfare Act, and other Federal statutes and regulations relating to animals and experiments involving animals and adheres to principles stated in the “Guide for Care and Use of Laboratory Animals” as prepared by the Committee on Care and Use of Laboratory Animals of the Institute of Laboratory Animal Resources, National Research Council in facilities that are fully accredited by the Association for Assessment and Accreditation of Laboratory Animal Care, International. Male Sprague-Dawley rats (CD IGS [CRL:CD (SD)]) were purchased from Charles River Laboratories (Stone Ridge, N.Y.). Rats weighing 215-245 g (8 weeks old) were used. Briefly, rats were housed two per cage with a rat tunnel enrichment device (Bio-Serve, Frenchtown, N.J.). Rats were fed a Purina Rodent Diet No. 5002 (Ralston Purina Co., St. Louis, Mo.), supplied ad libitum. Animals received reverse osmosis-treated tap water (City of Durham, N.C.) ad libitum, which was changed at least once weekly. Controls in the animal rooms were set to maintain temperatures between 20-In vivo rat experiments were performed at Integrated Laboratory Systems (ILS, Research Triangle Park, NC). ILS's Institutional Animal Care and Use Committee approved all experimental procedures. Research was conducted in compliance with the Animal Welfare Act, and other Federal statutes and regulations relating to animals and experiments involving animals and adheres to principles stated in the “Guide for Care and Use of Laboratory Animals” as prepared by the Committee on Care and Use of Laboratory Animals of the Institute of Laboratory Animal Resources, National Research Council in facilities that are fully accredited by the Association for Assessment and Accreditation of Laboratory Animal Care, International. Male Sprague-Dawley rats (CD IGS [CRL:CD (SD)]) were purchased from Charles River Laboratories (Stone Ridge, N.Y.). Rats weighing 215-245 g (8 weeks old) were used. Briefly, rats were housed two per cage with a rat tunnel enrichment device (Bio-Serve, Frenchtown, N.J.). Rats were fed a Purina Rodent Diet No. 5002 (Ralston Purina Co., St. Louis, Mo.), supplied ad libitum. Animals received reverse osmosis-treated tap water (City of Durham, N.C.) ad libitum, which was changed at least once weekly. Controls in the animal rooms were set to maintain temperatures between 20-25° C. with a relative humidity of 30-70% and a 12-hour light/12-hour dark cycle, lights on at 6:00 AM. Clinically healthy animals were assigned to dose groups using a procedure that stratifies animals across groups by body weight such that mean body weight of each group was not statistically different from any other group using analysis of variance (Statistical Analysis System version 9.2, SAS Institute, Cary, N.C.). Animals were dosed by oral gavage for five consecutive days (+10 minutes from the previous day's dose administration time). Volume was based upon daily body weight.
# Animals were observed cageside one hour following daily dose administration, then 1-2 times per day during dosing regimens. Body weights were measured daily prior to dose administration, and prior to euthanasia. Twenty-four hours after the final dose administration, animals were anesthetized with isoflurane then euthanized by exsanguination followed by decapitation. Livers were harvested at necropsy and weighed to within 0.1 g. One half of the left lobe of the liver was fixed in 10% formalin. […]
# [2] = tested on: Tgfb1; test: qPCR of liver RNA: Tgfb1; format: in vivo, Male Sprague-Dawley rats
# Protocol: Working on dry ice, a portion (−10 mg) of flash-frozen liver was cut from each sample and transferred to a clean, labeled tube. Total RNA was then isolated using Qiagen's miRNeasy 96 kit (Qiagen, Valencia, Calif.) following manufacturer's instructions with a final elution volume of −150 μL (2×75 μL). The quality and quantity of RNA samples were evaluated with a 2100 Bioanalyzer (Agilent Technologies, Santa Clara, Calif.), using the Agilent RNA 6000 Nano Reagents and a multiwell NanoDrop 8000 spectrophotometer (Thermo Fisher Scientific, Waltham, Mass.).
# Using 1 μg RNA input, cDNA was generated using a QuantiTect Reverse Transcription kit (Qiagen, Valencia, Calif.) following manufacturer's instructions. Applied Biosystems SYBR Green Master Mix was used in a 20 μL qPCR reaction with 2 μL of cDNA template and a 2.tM final concentration of each primer. A total of five genes were targeted (Gapdh, Actb, Timp1, Tgfbl, and Psma5), two of which served as the endogenous controls (Gapdh and Actb). An Applied Biosystems 7500 Real-Time PCR System (Applied Biosystems, Foster City, Calif.) was used for thermal cycling and fluorescence detection using the default settings for Quantitation-Comparative CT with SYBR® . . . Green Reagents which uses the following scheme: 95° C. for 10 minutes followed by 40 cycles of: 95° C. for 15 seconds, 60° C. for 1 minute, and a fluorescence signal read. Al! primers were obtained from Integrated DNA Technology's PrimeTime qPCR primer library (Integrated DNA Technologies, Coralville, Iowa).
# Data was imported into GraphPad Prism (GraphPad Software, Inc.; LaJolla, Calif.) for analysis. A nonparametric Kruskal-Wallis analysis of variance by ranks with post hoc […] multiple comparison test was used to determine statistical difference among dose groups. A one sample t-test compared to a theoretical mean of 1.0 fold change was used to determine difference from control for each dose group. A p-value<0.05 was used as a cutoff for statistical significance.
# [3] = format: in vivo, Male Sprague-Dawley rats; conditions: for Body weight change over the five-day exposure interval: highest dose(s)
# Protocol: as §1
# Animals were observed cageside one hour following daily dose administration, then 1-2 times per day during dosing regimens. Body weights were measured daily prior to dose administration, and prior to euthanasia. Twenty-four hours after the final dose administration, animals were anesthetized with isoflurane then euthanized by exsanguination followed by decapitation. Livers were harvested at necropsy and weighed to within 0.1 g. One half of the left lobe of the liver was fixed in 10% formalin. The remaining half of the left lobe of the liver was flash frozen in liquid nitrogen, then stored below −70° C. Liver specimens were frozen in less than three minutes from time of death.
# [4] = 4,4′-MDA 22 mg/kg, animals 89-92
# [5] = 4,4′-MDA 59.7 mg/kg, animals 93-96
# [6] = 4,4′-MDA 162 mg/kg, animals 97-100
# [7] = across dose groups, five days (figure legend)
# [8] = oral gavage five days, across doses
# [9] = liver, across dose groups, vs control
# [10] = exposures on the gene panel (FIG. 9 legend)
# [11] = histopathology score, individual animals, Carbon Tetrachloride 200, Bromobenzene 785, Dexamethasone 1 mg/kg
# [12] = Carbon Tetrachloride 200 mg/kg, animal 54
structure (smiles),measurement,setting,value
"Nc1ccc(Cc2ccc(N)cc2)cc1 [4,4′-methylenedianiline]",Periportal fibrosis (Masson's trichrome),[1],periportal fibrosis
same,Periportal fibrosis (Masson's trichrome),"[1]; listed as 4,4′-methylenediani line",Perioportal fibrosis was confirmed
same,Bile Duct Hyperplasia and Fibroplasia,[1]; [4],0
same,Inflammation,[1]; [4],0
same,Necrosis,[1]; [4],0
same,Vacuolation,[1]; [4],0
same,Bile Duct Hyperplasia and Fibroplasia,[1]; [5],2 and 3
same,Inflammation,[1]; [5],2 and 3
same,Vacuolation,[1]; [5],0
same,Bile Duct Hyperplasia and Fibroplasia,[1]; [6],3 and 2
same,Cytoplasmic Alteration,[1]; [6],2 and 3
same,Inflammation,[1]; [6],2
same,Necrosis,[1]; [6],2 and 1
same,Vacuolation,[1]; [6],0
same,Combined histopathological scores as percent of animals with pathology,[1]; [7],dose-dependent increase in severe pathology
same,Fibrosis histopathology,[1],without fibrosis
same,Degree of fibrosis,[1]; [8],dose-dependent increase in the degree of fibrosis
same,"Histopathology: bile duct hyperplasia, fibrosis, necrosis","[1]; oral gavage five days, high doses",caused bile duct hyperplasia comorbid with fibrosis and necrosis
same,Tgfb1 gene expression by qPCR,[2]; [9],showed a dose-dependent increase; also recorded: dose-dependent increases in gene expression
same,Body weight gain over the five experimental dosing days,[3]; dose groups,decrease in body weight gain
same,Body weight change over the five-day exposure interval,[3],gained less weight over the five-day exposure interval than their low-dose counterparts
Brc1ccccc1 [bromobenzene],Combined histopathological scores as percent of animals with pathology,[1]; [7],dose-dependent increase in severe pathology
same,Histopathological evidence of bile duct hyperplasia or fibrosis,[1]; any dose,did not cause histopathological evidence of bile duct hyperplasia or fibrosis at any dose
same,Histopathological evidence of vacuolation and/or glycogen accumulation,[1]; [10],correlated with histopathological evidence of vacuolation and/or glyocgen accumulation
same,Vacuolation,[1]; highest dose,varying degrees of vacuolation in all experimental animals
same,Bile Duct Hyperplasia and Fibroplasia,[1]; [11],0
same,Cytoplasmic Alteration,[1]; [11],1 (2×) and 2 and 3
same,Inflammation,[1]; [11],1 (3×) and 2
same,Vacuolation,[1]; [11],2 and 3 (2×) and 1
same,Tgfb1 gene expression by qPCR,[2]; [9],"not significantly affected at any dose; also recorded: slight, statistically insignificant increase"
same,Body weight gain over the five experimental dosing days,[3]; dose groups,decrease in body weight gain
same,Body weight change over the five-day exposure interval,[3],resulted in body weight loss over the study interval
ClC(Cl)(Cl)Cl [carbon tetrachloride],Centrilobular collagenous accumulation (Masson's trichrome),[1],pre-fibrogenic lesions in centrilobular region
same,Centrilobular collagenous accumulation (Masson's trichrome),[1]; listed as Carbon tetrachloride,caused prefibrotic centrilobular collagenous accumulation
same,Bile Duct Hyperplasia and Fibroplasia,[1]; [12],0
same,Cytoplasmic Alteration,[1]; [12],0
same,Inflammation,[1]; [12],0
same,Necrosis,[1]; [12],1
same,Vacuolation,[1]; [12],3
same,Combined histopathological scores as percent of animals with pathology,[1]; [7],dose-dependent increase in severe pathology
same,Histopathological evidence of vacuolation and/or glycogen accumulation,[1]; [10],correlated with histopathological evidence of vacuolation and/or glyocgen accumulation
same,Bile Duct Hyperplasia and Fibroplasia,[1]; [11],0
same,Inflammation,[1]; [11],0
same,Vacuolation,[1]; [11],4 and 3 (2×)
same,Fibrosis histopathology,[1],without fibrosis
same,Vacuolation,[1]; [8],dose-dependent increase in vacuolation indicative of lipid accumulation without evidence of fibrosis
same,Tgfb1 gene expression by qPCR,[2]; [9],insignificant
same,Tgfb1 gene expression by qPCR,"[2]; liver, across dose groups, vs control, listed as Carbon tetrachloride",not significantly upregulated at any dose
same,Body weight change,[3]; all doses,Body weight gain was less than controls at all doses
same,Body weight gain over the five experimental dosing days,[3]; dose groups,decrease in body weight gain
C[C@@H]1C[C@H]2[C@@H]3CCC4=CC(=O)C=C[C@]4(C)[C@@]3(F)[C@@H](O)C[C@]2(C)[C@@]1(O)C(=O)CO [dexamethasone],Tissue necrosis,[1]; highest dose (300 mg/kg),moderate tissue necrosis affecting >60-80% of the tissue in two animals
same,Combined histopathological scores as percent of animals with pathology,"[1]; rat, in vivo",dose-dependent increase in severe pathology
same,Cytoplasmic Alteration,"[1]; rat, in vivo",marked cytoplasmic alteration characteristic of glycogen accumulation
same,Histopathological evidence of vacuolation and/or glycogen accumulation,"[1]; rat, in vivo",correlated with histopathological evidence of vacuolation and/or glyocgen accumulation
same,Tgfb1 gene expression by qPCR,[2]; 44.8 mg/kg,the difference was not statistically significant
same,Tgfb1 gene expression by qPCR,"[2]; 1, 6.7, or 300 mg/kg",significantly downregulated
same,Tgfb1 gene expression by qPCR,[2]; [9],decreased gene expression
same,Body weight change,"[3]; rat, in vivo",Body weight loss occurred at all doses
same,Body weight gain over the five experimental dosing days,"[3]; rat, in vivo",decrease in body weight gain
